Data from US20050191668A1, “Methods of using peroxisome proliferator-activated receptor alpha target genes” (priority 2004, published 2005).

Experiments:
Type in all cases: cell-based, human
Pa21 gene = Pa21 gene expression by real-time RT-PCR in primary adipocytes; settings: about 18-20 hours, vehicle control = 100
From the text: (§1) Human hepatocyte HuH7 cells, which are epithelial cells of liver, were obtained from Japan Health Science Research Resources Bank (Osaka, Japan). Human primary adipocytes, which are connective tissue cells specialized for the synthesis and storage of fat, were obtained from Zen-Bio, Inc (Research Triangle Park, NC). Human primary skeletal muscle cells (SKMC) were obtained from Cambrex Bio Science (Walkersville, Md.). PPARα agonists, Wy14643 (Agatha, et al, 2000, Archives of Biochemistry and Biophysics 380:353-359) and fenofibrates were obtained from Cayman Chemical (Ann Arbor, Mich.) and Sigma (St Louis, Mo.), respectively.
(§2) Human HuH7 cells were cultured in Dulbecco's Modified Eagle Medium with 10% Fetal Bovine Serum (Gibco, N.Y.). Cells were treated with charcoal-stripped, delipidated calf serum (5%) (Sigma, St Louis, Mo.) for about 4-18 hours. Then, cells were treated with different concentrations of PPARα agonist (Wy14643 or fenofibrates) for about 20-24 h. Human SKM cells were cultured in Skeletal Muscle Growth Medium (Cambrex Bio Science, Walkersville, Md.), and were treated with different concentrations of PPARα agonist (Wy14643 or fenofibrates) for about 18-20 hours. Human primary adipocytes were cultured in Preadipocyte Medium, (Cat #PM—1, Zen-Bio, Inc., Research Triangle Park, NC), and were treated with different concentrations of PPARα agonist (Wy14643 or fenofibrates) for about 18-20 hours.
(§3) Total RNA was purified from cultured cells following the protocol provided by the manufacturer (Trizon method, Invitrogen Inc. Ca). The polymerase chain reaction (PCR) primers and fluorescent probes (TagMan probes) for Pa9, Pa13, and Pa21 were designed from GenBank sequences of accession numbers W30988, AB000584, and NM_080725, respectively. The primers and probes were designed using the software PrimerDesign (Applied Biosystems, Foster City, Calif.). The PCR primers for Pa9 were SEQ ID NO: 7, (5-[…]) and SEQ ID NO: 8 (5-[…]). […] The PCR primers for Pa13 were SEQ ID NO: 10 (5-[…], T) and SEQ ID NO: 11 (5-[…] T). […] The PCR primers for Pa21 were SEQ ID NO: 13 (5-[…] C) and SEQ ID NO: 14 (5-[…]). […] All primers and probes were synthesized by Keystone Labs (Camarillo, Calif.).
(§4) Reverse transcription (RT) and PCR were conducted in one step using “One-Step RT-PCR Master Mix Reagent” kit (Applied Biosystems, Foster City, Calif.) in ABI PRISM 7700 Sequence Detection System (Applied Biosystems). Each reaction was performed in a total volume of 25 μl containing 40 ng of total RNA. The reaction condition was: 48° C. for 30 minutes, 60° C. for 30 minutes, 94° C. for 5 minutes, followed by 40 cycles of 94° C. for 20 seconds and 60° C. for 1 minute. The primers for 18S ribosomal RNA were developed and provided by Applied Biosystems. The measurement of human 18S ribosomal RNA was used as an internal control for normalization of measuring and loading errors. PCR data were collected by Ct value (the cycle number at which logarithmic PCR plots cross a calculated threshold line) according to the manufacturer's guidelines and the value was used to determine the Δ^Ct (Ct of the target gene minus the Ct of 18S ribosomal RNA controls). Relative mRNA level was calculated using the equation 2^−ΔΔCt as described previously (Heid et al., 1996, Genome Res. 6:986-994).

Pa9 gene [1] = assay: Pa9 gene expression in SKM cells with or without siRNA-reduced PPARα expression
From the text: (§5) SiRNA oligos specific to PPARα were designed and used to knock-down or reduce the expression level of PPARα in human SKMU cells following procedures known to those skilled in the art (Brummelkamp et al., 2002, Science, 296: 550-553). Four sets of siRNA oligo were originally designed using GenBank accession number S74349 (human peroxisome proliferator activated receptor alpha, cDNA; PPARα) as the template, and the software, Target Finder (Ambion, Austin, Tex.). […] The sequences for the two sets of siRNA correspond to 907 bp to 927 bp (SEQ ID NO: 21, 5′-[…] A) and 1106 bp to 1126 bp of the cDNA (SEQ ID NO: 22, 5′-[…] T) relative to the first nucleotide of the start codon. The oligos were chemically synthesized by Ambion Inc. (Austin, Tex.). The universal negative control siRNA oligo was purchased from Ambion.
Human primary skeletal muscle cells (hSKM, provided by Cambrex, Md.) were prepared the day before transfection at the density of 4.67×10^4 cells/per 60 mm dish (about 20% confluence). The cells were cultured at 37° C., 5% CO2 for 24 hrs with antibiotics-free SKGM medium (Cambrex, Md.).
Transfection of siRNAs into the cultured cells was carried out following the manufacturer's instruction. Briefly, before the transfection, siPORT Amine (Ambion, Tex.) was first diluted with SKGM medium free of antibiotics and serum (10 μl siPORT/ml), followed by adding siRNA (50 nM) into the mixture. SKM cells (prepared in advance in multiple dishes) were transfected with 2 ml of the mixture for 4 hrs. Additional 8 ml of fresh SKGM medium (without antibiotics) were added into each dish to maximize cell growth and reduce potential cytotoxicity caused by the transfection reagent. As controls, the cells were also transfected with siPORT Amine alone or siPORT Amine plus universal negative control siRNA.
(§6) Again, total RNA was isolated from the cells and real-time PCR was performed and the expression levels of target genes of interest, such as Pa9, 13 and 21, were quantitatively measured using the RT-PCR technique described in Example 1.

Pa13 gene = Pa13 gene expression in SKM cells with siRNA-reduced PPARα expression; settings: SKMU cells with reduced PPARα expression
From the text: as §5
Human primary skeletal muscle cells (hSKM, provided by Cambrex, Md.) were prepared the day before transfection at the density of 4.67×10^4 cells/per 60 mm dish (about 20% confluence). The cells were cultured at 37° C., 5% CO2 for 24 hrs with antibiotics-free SKGM medium (Cambrex, Md.). […]
as §6

Pa9 gene [2] = assay: Pa9 gene expression by real-time RT-PCR in primary adipocytes; settings: about 18-20 hours, vehicle control = 100
From the text: as §1, §2
Total RNA was purified from cultured cells following the protocol provided by the manufacturer (Trizon method, Invitrogen Inc. Ca). The polymerase chain reaction (PCR) primers and fluorescent probes (TagMan probes) for Pa9, Pa13, and Pa21 were designed from GenBank sequences of accession numbers W30988, AB000584, and NM_080725, respectively. The primers and probes were designed using the software PrimerDesign (Applied Biosystems, Foster City, Calif.). The PCR primers for Pa9 were SEQ ID NO: 7, (5-[…]) and SEQ ID NO: 8 (5-[…]). […] The PCR primers for Pa13 were SEQ ID NO: 10 (5-[…], T) and SEQ ID NO: 11 (5-[…] T). […] The PCR primers for Pa21 were SEQ ID NO: 13 (5-[…] C) and SEQ ID NO: 14 (5-[…]). […]
Reverse transcription (RT) and PCR were conducted in one step using “One-Step RT-PCR Master Mix Reagent” kit (Applied Biosystems, Foster City, Calif.) in ABI PRISM 7700 Sequence Detection System (Applied Biosystems). […] PCR data were collected by Ct value (the cycle number at which logarithmic PCR plots cross a calculated threshold line) according to the manufacturer's guidelines and the value was used to determine the Δ^Ct (Ct of the target gene minus the Ct of 18S ribosomal RNA controls). Relative mRNA level was calculated using the equation 2^−ΔΔCt as described previously (Heid et al., 1996, Genome Res. 6:986-994).

Pa9 gene [3] = assay: Pa9 gene expression by real-time RT-PCR in HuH7 hepatocytes; settings: for Pa9 (W38098) gene expression, Percentage ± SE (%): HuH7 hepatocytes, about 20-24 h, vehicle control = 100
From the text: as §1, §2, §3, §4

SMILES: Cc1cccc(Nc2cc(Cl)nc(SCC(=O)O)n2)c1C [Wy14643]
- Pa21 (H4960) gene expression, Percentage ± SE (%) (Pa21 gene; 10 uM): 92 ± 10%
- Pa21 (H4960) gene expression, Percentage ± SE (%) (Pa21 gene; 50 uM): 108 ± 2%
- Pa21 (H4960) gene expression, Percentage ± SE (%) (Pa21 gene; 250 uM): 314 ± 2.5%
- increase of Pa9 gene expression (Pa9 gene [1]; SKM cells with reduced gene expression of PPARα (siRNA), 16 hrs treatment): 2.35 fold
- induction of Pa9 gene expression (Pa9 gene [1]; SKM cells without reduced expression level of PPARα, 16 hrs treatment): 33.48 fold
- induction of Pa9 gene expression (FIG. 5) (Pa9 gene [1]; SKMU cells with reduced PPARα expression): decreased induction
- induction of Pa13 gene expression (FIG. 6) (Pa13 gene): no detectable induction
- Pa9 (W38098) gene expression, Percentage ± SE (%) (Pa9 gene [2]; 10 uM): 124 ± 7.2%
- Pa9 (W38098) gene expression, Percentage ± SE (%) (Pa9 gene [2]; 50 uM): 358 ± 6.9%
- Pa9 (W38098) gene expression, Percentage ± SE (%) (Pa9 gene [2]; 250 uM): 437 ± 17.3%
- Pa9 (W38098) gene expression, Percentage ± SE (%) (Pa9 gene [3]; 3 uM): 90 ± 17%
- Pa9 (W38098) gene expression, Percentage ± SE (%) (Pa9 gene [3]; 10 uM): 190 ± 62.1%
- Pa9 (W38098) gene expression, Percentage ± SE (%) (Pa9 gene [3]; 30 uM): 200 ± 48%
- Pa9 (W38098) gene expression, Percentage ± SE (%) (Pa9 gene [3]; 100 uM): 540 ± 57.8%
- Pa9 (W38098) gene expression, Percentage ± SE (%) (Pa9 gene [3]; 300 uM): 690 ± 42.8%
- gene expression of Pa9, Pa13, or Pa21 (statement in words) (Pa9 gene [3]; human HuH7 cells, primary SKMU cells, or primary adipocytes (Tables 1-3)): increased gene expression
